# Source: patent publication US20110212100A1, “METHODS FOR MODULATING DEVELOPMENT AND EXPANSION OF IL-17 EXPRESSING CELLS” (priority 2007, published 2011)
# Several values for one entry are separate records, joined by “and”; a condition that tells them apart may be missing. Equal entries are not always repeated.
# Test system: Th17 differentiation of CD4+ CD25− T cells
# Test: Th17 differentiation (IL-17+ IFNγ− cells) of T cells activated with TGFβ plus IL-6
# Format: cell-based, mouse
# Procedure: Low doses of halofuginone (HF) were tested to determine the ability of HF to enhance Treg differentiation, while suppressing Th17 differentiation. Nave. CD4+ T cells (CD4+ CD25−) were isolated from the spleen and peripheral lymph nodes of C57B/6 mice. T cells were then activated using anti-CD3 (0.3 μg/ml) and anti-CD28 (0.5 μg/ml) antibodies either in media alone (row 1, 4), TGFβ alone (3 ng/ml—row 2, 5) or TGFβ (3 ng/ml) plus IL-6 (30 ng/ml) (row 3, 6). […] T cells were cultured for 3 days and CD25 and Foxp3 expression (Treg marker genes) was determine by FACS staining and flow cytometric analyses. Simultaneously, T cells were harvested and re-stimulated for 4 hours using phorbol myristic acetate (PMA; 10 nM), Ionomycin (1 μM) and cytokine secretion was prevented using brefeldin A (20 μg/ml). Following stimulation, the production of IL-17 and IFNγ were determined by intracellular staining and analyzed via flow cytometry.
# The dose-response of HF on CD4+ T cell proliferation, activation (i.e. CD25 upregulation) and differentiation to Th1, Th2 and Th17 lineages were evaluated. Purified murine naïve CD4+ CD25− T cells were activated using anti-CD3 (0.3 μg/ml) and anti-CD28 (0.5 μg/ml) antibodies and varying amounts of HF was added to each T cell culture condition (1.25 nM-40 nM). CD4+ T cell proliferation was monitored by CFSE dilution on day 3-post activation and CD25 expression was evaluated by FACS staining 2 days after activation. For T cell differentiation experiments, naïve T cells were activated as above in the presence of Th1 (IL-12 (20 ng/ml) plus anti-IL-4 (10 μg/ml)), Th2 (IL-4 (50 ng/ml) plus anti-IFNγ (0.5 mg/ml)) or Th17 (TGFβ (3 ng/ml) plus IL-6 (30 ng/ml)) polarizing conditions plus titrating amounts of HF (1.25 nM-40 nM) or MAZ1310 (40 nM). The percentage of Th17 cells, (IL-17^+ IFNγ^−) was evaluated on day 3 following activation, whereas the abundance of Th1 cells (IFNγ^+ IL-4) and Th2 cells (IL-4^+ IFNγ^−) was determined 5 days following activation. All cytokine expression was determined by intracellular staining following PMA+Ionomycin+Brefeldin A re-stimulation and all data was normalized to control (MAZ1310)-treated cells. […] Biol., vol. 80:1-8 (2006).
# Cytokines, antibodies and T cell culture: Purified CD4^+ CD25^− T cells were activated in vitro as previously described (I. M. Djuretic et al., Nat Immunol 8, 145 (2007)) using 0.3 μg/ml hamster anti-mouse CD3 (clone 145-2C11) (ATCC—Manassas, Va.) and 0.5 μg/ml hamster anti-mouse CD28 (BD Pharmingen, San Jose, Calif.). Activated cell cultures were differentiated using the following combinations of cytokines and antibodies: iTreg=recombinant human TGFβ1 (3 ng/ml; R&D systems, Minneapolis, Minn.), Th17βTGFβ1 (3 ng/ml) plus recombinant mouse IL-6 (30 ng/ml, R&D systems). Th1 and Th2 differentiation was performed as previously described. (I. M. Djuretic et al., Nat Immunol 8, 145 (2007)). Human IL-2 supernatant (National Cancer Institute) was used in culture at 0.01 U/ml and was added at 48 hours-post activation when T cells were split into tissue culture wells lacking CD3 and CD28 antibodies, with the exception of Th17 cultures that were maintained in the absence of IL-2. All reagents were added at the time of T cell activation and again at 48-hours post activation unless indicated otherwise. For some experiments, purified CD4^+ CD25^− T cells, CD8^+ T cells or B cells were labeled with 1 μM CFSE (Invitrogen) prior to activation in accordance with manufacturers instructions.
# Detection of cytokine production: Cytokines secreted into media supernatant were measured using the mouse Th1/Th2 cytometric bead array (CBA, BD Pharmingen) in accordance with manufacturers instructions.
smiles,measurement,setting,value
"O=C(CC1NCCCC1O)Cn1cnc2cc(Br)c(Cl)cc2c1=O (racemic) [HF, 7-bromo-6-chloro-3-[3-(3-hydroxy-2-piperidinyl)-2-oxopropyl]-4(3H)-quinazolinone]","time of addition giving most pronounced inhibition of IL-17 expression, in words",10 nM HF added at indicated times after activation,most pronounced when HF was added during a 12-hour window at the start of the culture period
same,"effect on Il17 and Il17f mRNA expression, in words","10 nM HF, 4 days, Th17 cytokine conditions",impaired expression of both Il17 and Il17f mRNA
same,"IL-17 expression in T cells lacking Foxp3, in words","10 nM HF, Foxp3 KO naïve CD4+ T cells, TGFβ plus IL-6",strongly repressed IL-17 expression
same,"Th17 differentiation of T cells expressing STAT3C, in words","10 nM HF, STAT3C-GFP+ cells",remained capable of differentiating into Th17 cells
same,"Th17 differentiation of cells expressing YFP or no transgene, in words","5-10 nM HF, TAT-Cre treated T cells",strongly impaired
same,fold lower doses for effects on Th17 differentiation versus general inhibition of T-cell proliferation and Th1/Th2 differentiation,FIG. 7,5- to 10 fold and ~10 fold
same,"Th17 differentiation in T cells transduced with RORγt-expressing versus empty retroviruses, in words",MIG.RORγt vs MIG,inhibited Th17 differentiation as effectively
same,IC50,"Mus musculus, T-cell, in vitro, read-out: concentration for 50% inhibition of Th17 cell development",~3 nM
same,concentration window of specific inhibition of Th17 differentiation,"exogenously added HF, TGFbeta in the presence of IL-6",2 to 30 nM
